Laboratory results published in US20190203240A1, “METHODS FOR THE PRODUCTION OF RHAMNOSYLATED FLAVONOIDS” (Universitaet Hamburg, priority 2016, published 2019).
Values joined by “and” are separate entries in the source; they are usually repeats but may differ in a detail not shown here. Equal entries are not always repeated.

Experiments:
fibronectin = test: Stimulation of fibronectin synthesis in NHDF (ELISA); assay type: cell-based, human; details: 72 h incubation, 10 ng/ml
Experimental: (§1) Tests were performed with normal human dermal fibroblast cultures at the 8th passage. Cells were grown in DMEM supplemented with glutamine at 2 mM, penicillin at 50 U/mL and streptomycin (50 μg/mL) and 10% of fetal calf serum (FCS) at 37° C. in a 5% CO2 atmosphere.
(§2) Fibroblasts were cultured for 24 hours before the cells were incubated with the test compounds for further 72 hours. After the incubation the culture supernatants were collected in order to measure the released quantities of procollagen I, VEGF, and fibronectin by means of ELISA. Reference test compounds were vitamin C (procollagen I), PMA (VEGF), and TGF-β (fibronectin).

procollagen I = test: Stimulation of procollagen I synthesis in NHDF (ELISA); assay type: cell-based, human; details: 72 hours, 20 μg/ml
Experimental: as §1, §2

[1] = test system: lipid peroxides (C11-fluor) in NHEK cells; test: Protection against UV-induced lipid peroxide in NHEK (C11-fluor probe, flow cytometry); assay type: cell-based, human; details: 240 mJ/cm^2 UVB (3538 mJ/cm^2 UVA), 50 μM
Experimental: (§3) Pre-incubated NHEK were incubated with the test compound for 24 h. Then the specific fluorescence probe for the measurement of hydrogen peroxide (DHR) or lipid peroxides (C11-fluor) was added and incubated for 45 min. Irradiation occurred with in H2O2 determination UVB at 180 mJ/cm^2 (+UVA at 2839 mJ/cm^2) or UVB at 240 mJ/cm^2 (+UVA at 3538 mJ/cm^2) in lipid peroxide, respectively, using a SOL500 Sun Simulator lamp. After irradiation the cells were post-incubated for 30 min before flow-cytometry analysis.

PGE2 = test: Anti-inflammatory potential: secreted PGE2 in stimulated NHEK (ELISA); assay type: cell-based, human; details: PMA - 1 μg/ml, reference at 10^−6M, cytokine type not given; for Cytokine: single values
Experimental: NHEK were pre-incubated for 24 h with the test compounds. The medium was replaced with the NHEK culture medium containing the inflammatory inducers (PMA or Poly I:C) and incubated for another 24 hours. Positive and negative controls ran in parallel. At the endpoint the culture supernatants were quantified of secreted IL-8, PGE2 and TNF-α, by means of ELISA.

[2] = test system: normal human epidermal keratinocytes (NHEK); test: Cytotoxicity on NHEK monolayer (MTT reduction assay and morphological observation); assay type: cell-based; details: for Viability (%) Mean / Viability (%): MTT; for Viability (%): single values; for Morph. obs.: microscope
Experimental: To determine the cytotoxicity of flavonoid-5-O-α-L-rhamnosides tests were performed versus their aglycon derivatives in cell monolayer cultures. For this purpose concentrations ranging from 1 μM to 250 μM were chosen. The viability of normal human epidermal keratinocytes (NHEK) was twice evaluated by a MTT reduction assay and morphological observation with a microscope. NHEK were grown at 37° C. and 5% CO2 aeration in Keratinocyte-SFM medium supplemented with epidermal growth factor (EGF) at 0.25 ng/mL, pituitary extract (PE) at 25 μg/mL and gentamycin (25 μg/mL) for 24 h and were used at the 3rd passage. For cytotoxicity testing, pre-incubated NHEK were given fresh culture medium containing a specific concentration of test compound and incubated for 24 h. After a medium change at same test concentration cells were incubated a further 24 h until viability was determined. Test results are given in Table B2 and illustrated in FIG. 10.

[3] = test system: hydrogen peroxide (DHR) in NHEK cells; test: Protection against UV-induced H2O2 stress in NHEK (DHR probe, flow cytometry); assay type: cell-based, human; details: 180 mJ/cm^2 UVB (2839 mJ/cm^2 UVA), 100 μM
Experimental: as §3

[4] = test system: matrix metallopeptidase 1 (MMP-1); test: MMP-1 release in UVA-irradiated NHDF (ELISA); assay type: cell-based, human; details: NHDF irradiated 15 J/cm^2 UVA, 10^−7M
Experimental: as §1
Human fibroblasts were cultured for 24 hours before the cells were pre-incubated with the test or reference compounds (dexamethasone) for another 24 hours. The medium was replaced by the irradiation medium (EBSS, CaCl2) 0.264 g/L, MgClSO4 0.2 g/L) containing the test compounds) and cells were irradiated with UVA (15 J/cm^2). The irradiation medium was replaced by culture medium including again the test compounds incubated for 48 hours. After incubation the quantity of matrix metallopeptidase 1 (MMP-1) in the culture supernatant was measured using an ELISA kit.

VEGF = test: Stimulation of VEGF release in NHDF (ELISA); assay type: cell-based, human; details: 72 hours, 1 μg/ml
Experimental: as §1, §2

Molecule: TGF-β [listing 1 of 2 here]
- Fibronectin % Control (fibronectin): 181%
- Fibronectin % Stimulation (fibronectin): 81%
- Fibronectin (ng/ml), single replicates (fibronectin): 10870 ng/mL

Molecule: O=C1O[C@H]([C@@H](O)CO)C(O)=C1O [Vitamin C]
- Procollagen I % Control (procollagen I): 316%
- Procollagen I % Stimulation (procollagen I): 216%
- Procollagen I Mean (procollagen I): 5272 ng/mL
- Procollagen I (procollagen I; single values): 4739 ng/mL and 5854 ng/mL and 5225 ng/mL

Molecule: TGF-β [listing 2 of 2 here]
- Fibronectin (ng/ml), single replicates (fibronectin): 11178 ng/mL and 11128 ng/mL

Molecule: Cc1cc(C(C)(C)C)c(O)c(C(C)(C)C)c1 [BHT]
- C11-fluor (AU) Mean (1/GMFI) [1]: 3.3E−04 AU
- lipid peroxide % Irradiated control [1]: 72%
- lipid peroxide Protection % [1]: 37%
- C11-fluor (AU) 1/GMFI ([1]; single values): 3.2E−04 AU and 3.3E−04 AU and 3.5E−04 AU
- C11-fluor (AU) GMFI ([1]; single values): 3139 AU and 3047 AU and 2877 AU

Molecule: COc1ccc2c(c1)c(CC(=O)O)c(C)n2C(=O)c1ccc(Cl)cc1 [Indomethacin]
- % stim. control (PGE2): 2%
- Cytokine [pg/mL] Mean (PGE2): 39 pg/mL
- Cytokine (PGE2): 39 pg/mL

Molecule: COc1ccc(C2CC(=O)c3c(O)cc(O)cc3O2)cc1O (stereo not shown) [Hesperetin, 3′,5,7-Trihydroxy-4′-methoxyflavanone]
- Viability (%) Mean ([2]; 1 μM): 105%
- Viability (%) ([2]; 1 μM): 103% and 106%
- Viability (%) Mean ([2]; 2.5 μM): 103%
- Viability (%) ([2]; 2.5 μM): 98% and 109%
- Viability (%) Mean ([2]; 5 μM): 106%
- Viability (%) ([2]; 5 μM): 107% and 106%
- Viability (%) Mean ([2]; 10 μM): 103%
- Viability (%) ([2]; 10 μM): 101% and 105%
- Viability (%) Mean ([2]; 25 μM): 108%
- Viability (%) ([2]; 25 μM): 106% and 109%
- Viability (%) Mean ([2]; 50 μM): 106%
- Viability (%) ([2]; 50 μM): 106%
- Viability (%) Mean ([2]; 100 μM): 99%
- Viability (%) ([2]; 100 μM): 98% and 100%
- Viability (%) Mean ([2]; 250 μM): 57%
- Viability (%) Mean ([2]; 250 μM, listed as hesperetin): about 50%
- Viability (%) ([2]; 250 μM): 54% and 59%

Molecule: O=C1CC(c2ccc(O)cc2)Oc2cc(O)cc(O)c21 (stereo not shown) [Naringenin, 4′,5,7-Trihydroxyflavanone]
- Viability (%) Mean ([2]; 1 μM): 95%
- Viability (%) ([2]; 1 μM): 96% and 95%
- Viability (%) Mean ([2]; 2.5 μM): 93%
- Viability (%) ([2]; 2.5 μM): 95% and 92%
- Viability (%) Mean ([2]; 5 μM): 92%
- Viability (%) ([2]; 5 μM): 93% and 91%
- Viability (%) Mean ([2]; 10 μM): 95%
- Viability (%) ([2]; 10 μM): 95%
- Viability (%) Mean ([2]; 25 μM): 92%
- Viability (%) ([2]; 25 μM): 89% and 94%
- Viability (%) Mean ([2]; 50 μM): 89%
- Viability (%) ([2]; 50 μM): 85% and 94%
- Viability (%) Mean ([2]; 100 μM): 75%
- Viability (%) ([2]; 100 μM): 76% and 74%
- Viability (%) Mean ([2]; 250 μM): 47%
- Viability (%) Mean ([2]; 250 μM, listed as naringenin): about 50%
- Viability (%) ([2]; 250 μM): 48% and 47%
- Morph. obs. ([2]; 100 μM): +/−,*
- Morph. obs. ([2]; 250 μM): +/−,*

Molecule: COc1ccc(O)c(C(C)(C)C)c1 [BHA]
- H2O2 % irradiated control [3]: 42%
- H2O2 (AU) Mean [3]: 776 AU
- H2O2 Protection % [3]: 70%
- H2O2 (AU) (DHR GMFI) ([3]; single values): 740 AU and 834 AU and 754 AU

Molecule: C[C@@H]1C[C@H]2[C@@H]3CCC4=CC(=O)C=C[C@]4(C)[C@@]3(F)[C@@H](O)C[C@]2(C)[C@@]1(O)C(=O)CO [Dexamethasone, reference compound]
- % stim. control (PGE2): 92%
- Cytokine [pg/mL] Mean (PGE2): 1437 pg/mL
- Cytokine (PGE2): 1318 pg/mL and 1556 pg/mL
- MMP-1 % Irradiated control [4]: 4%
- MMP-1 % Protection [4]: 150%
- MMP-1 (ng/ml), single replicates [4]: 2.5 ng/mL and 3.1 ng/mL and 3.2 ng/mL
- Mean MMP-1 [4]: 2.9 ng/mL

Molecule: CCCCCCCCCCCCCC(=O)O[C@@H]1[C@@H](C)[C@@]2(O)[C@@H](C=C(CO)C[C@]3(O)C(=O)C(C)=C[C@@H]23)[C@@H]2C(C)(C)[C@]12OC(C)=O [PMA]
- Mean VEGF (VEGF): 148 pg/mL
- VEGF % Control (VEGF): 205%
- VEGF % Stimulation (VEGF): 105%
- VEGF (VEGF; single values): 150 pg/mL and 143 pg/mL
